Test results reported in patent US11952387B2, “Bicyclic heteroaromatic ring derivative” (priority 2018, dated 2024).

System: HRV14
Assay: Inhibitory activity against human rhinovirus infection and replication (quantitative real-time PCR)
Assay type: cell-based
Settings: Human rhinovirus sp., MRC5; 100 nmol/L test compound; MRC-5 cells infected with HRV14 at MOI=0.2; 48 hours; viral load normalized to 18s rRNA; read-out: Percent Inhibition
Procedure: Evaluation of inhibitory activity against human rhinovirus infection and replication (by quantitative real-time PCR)
A required amount of a test compound was weighed off and dissolved in dimethyl sulfoxide (DMSO) to yield a 10 mmol/L stock solution. Next, the stock solution was diluted with a medium for viral infection (minimum essential medium (MEM) supplemented with 2% fetal bovine serum, 5% Tryptose phosphate broth, and 30 mmol/L MgCl2) to prepare 100 nmol/L and 1000 nmol/L of test compound solutions. MRC-5 (human fetal lung fibroblast: ATCC) was suspended at a density of 30000 cells/mL in cell culture medium (MEM supplemented with 10% fetal bovine serum), and 625 μL of the suspension per well was seeded into a 24-well cell culture plate and cultured at 37° C. in 5% CO2. After 72 hours, it was confirmed that the plate had become 80% confluent. The plate was washed with 625 μL of phosphate-buffered physiological saline (Ca/Mg-free; PBS-) once, and 625 μL of the test compound solution prepared just before use was immediately added to the plate. After 30 minutes, the medium was removed followed by addition of 187.5 μL of the test compound solution that had been prepared such that the cells were infected with HRV14 (ATCC) at multiplicity of infection (MOI)=0.2. The cells were then cultured at 35° C. in 5% CO2. After additional 2 hours, 625 μL of the test compound solution prepared just before use was added, and the cells were cultured at 35° C. in 5% CO2. After 48 hours, the cells were washed with 625 μL of PBS- once, and total RNA was extracted from the cells using RNeasy (R) plus kit (Qiagen) according to the manufacturer's instruction. Subsequently, cDNA was synthesized using High-Capacity cDNA Reverse Transcription Kit (Thermo Fisher Scientific). Finally, quantitative real-time PCR was performed in 7500 Fast Real-time PCR system (Life technologies) to measure HRV14 and 18s rRNA. The measurement protocol consisted of the initial denaturation phase at 95° C. for 20 seconds followed by 40 cycles of the denaturation step at 95° C. for 3 seconds and the annealing/elongation step at 60° C. for 30 seconds. The primers used were HRV14 forward primer set forth in SEQ ID NO: 1 and HRV14 reverse primer set forth in SEQ ID NO: 2, and the probe is set forth in SEQ ID NO: 3.
18s rRNA was measured using Eukaryotic 18S rRNA Endogenous Control (Applied Biosystems). According to Equation 1, 18s ribosomal RNA was used as an internal standard to normalize the viral load of HRV14: Viral load of HRV14=The amount of HRV14 in virus-infected cells/the amount of 18s rRNA in virus-infected cells Equation 1
Inhibitory activity of test compounds was calculated as a percent inhibition (%) according to Equation 2: Percent inhibition (%)=[the viral load of HRV in virus-infected cells in the absence of the test compound −the viral load of HRV in virus-infected cells in the presence of the test compound]/[the viral load of HRV in virus-infected cells in the absence of the test compound]×100 Equation 2
The results of using 100 nmol/L test compound solutions were shown in the tables below according to Examples. In the tables, percent inhibition was expressed as follows: percent inhibition >80%: +++, 80%≥percent inhibition >50%: ++, and 50%≥percent inhibition:+.

| Structure (SMILES) | inhibition at 0.1 µM [%] |
| --- | --- |
| COc1ccc(-c2c(C)nc3sc(C(C)(C)O)cn23)cc1S(=O)(=O)N[C@H]1CC[C@@H](OC)CC1 [Example 2-2] | ≤ 50 |
| Cc1nc2sc(C(C)(C)O)nn2c1-c1ccc(C(F)(F)F)c(S(=O)(=O)NC2COC2)c1 [Example 2-22] | > 80 |
| COc1ccc(-c2c(C)nc3sc(C(C)(C)O)nn23)cc1S(=O)(=O)Cc1ccc(C#N)cc1 [Example 2-93] | 50 to 80 |
| Cc1nc2sc(C(C)(C)O)nn2c1-c1ccc(C(F)(F)F)c(S(=O)(=O)NCC2(O)COC2)c1 [Example 2-30] | > 80 |
| COc1ccc(-c2c(C)nc3sc(C4(O)CC4)cn23)cc1S(=O)(=O)N[C@H]1CC[C@@H](O)CC1 [Example 22] | ≤ 50 |
| Cc1nc2sc(C(C)(C)O)nn2c1-c1ccc(C(F)F)c(S(=O)(=O)CC(C)(C)O)c1 [Example 2-37] | 50 to 80 |
| COc1ccc(-c2c(C)nc3sc(C(C)(C)O)nn23)cc1S(=O)(=O)N[C@H]1CC[C@@H](O)CC1 [Example 1-14] | 50 to 80 |
| Cc1nc2sc(C(C)(C)O)cn2c1-c1ccc(OC(F)(F)F)c(S(=O)(=O)N[C@H]2CC[C@@H](O)CC2)c1 [Example 1-3] | ≤ 50 |
| COc1ncc(-c2c(C)nc3sc(C(C)(C)C(=O)O)nn23)cc1S(=O)(=O)N[C@H]1CC[C@@H](O)CC1 [Example 18-2] | ≤ 50 |
| COc1ccc(-c2c(C)nc3sc(C(C)(C)O)nn23)cc1S(=O)(=O)N[C@H]1CC[C@H](O)CC1 [Example 1-1] | 50 to 80 |
| COc1ccc(-c2c(C)nc3sc(C(OC)(C(F)(F)F)C(F)(F)F)cn23)cc1S(=O)(=O)N[C@H]1CC[C@@H](O)CC1 [Example 1-12] | > 80 |
| Cc1nc2sc(C(C)(C)O)nn2c1-c1cnc(C(F)(F)F)c(S(=O)(=O)N[C@H]2CC[C@H](O)CC2)c1 [Example 2-11] | ≤ 50 |
| COc1ccc(-c2c(C)nc3sc(C(C)(C)O)nn23)cc1S(=O)(=O)NCC1COC1 [Example 21-4] | 50 to 80 |
| Cc1nc2sc(C(C)(C)O)nn2c1-c1ccc(C(F)(F)F)c(S(=O)(=O)N[C@H]2CC[C@H](O)CC2)c1 [Example 1-25] | > 80 |
| COc1ccc(-c2c(C)nc3sc(C(C)(C)O)cn23)cc1S(=O)(=O)Nc1ccc(O)cc1 [Example 21-18] | 50 to 80 |
| [2H]C([2H])([2H])C(O)(CS(=O)(=O)c1cc(-c2c(C)nc3sc(C(C)(C)O)nn23)ccc1OC)C([2H])([2H])[2H] [Example 2-53] | 50 to 80 |
| Cc1nc2sc(C(C)(C)O)nn2c1-c1cc2c(c(S(=O)(=O)CC(C)(C)O)c1)OCC2 [Example 2-83] | 50 to 80 |
| Cc1nc2sc(C(C)(C)O)nn2c1-c1ccc(C(F)(F)F)c(S(=O)(=O)CC2(CO)COC2)c1 [Example 2-35] | 50 to 80 |
| Cc1nc2sc(C(C)(C)O)cn2c1-c1ccc(C(F)(F)F)c(S(=O)(=O)CC(C)(C)O)c1 [Example 2-52] | ≤ 50 |
| COc1ccc(-c2c(C)nc3sc(C(C)(C)O)nn23)cc1S(=O)(=O)C[C@H]1CC[C@@H](O)CC1 [Example 1-34] | 50 to 80 |
| COc1ccc(-c2c(C)nc3sc(C(C)(C)O)nn23)cc1S(=O)(=O)NC(C)(C)CO [Example 1-36] | 50 to 80 |
| COc1ccc(-c2c(C)nc3sc(C(C)(C)O)nn23)cc1S(=O)(=O)C1(C(C)(C)O)CC(F)(F)C1 [Example 2-67] | > 80 |
| COc1ccc(-c2c(C)nc3sc(C4CC4)nn23)cc1S(=O)(=O)NC(C)(C)CO [Example 1-35] | > 80 |
| COc1c(F)cc(-c2c(C)nc3sc(C(C)(C)O)nn23)cc1S(=O)(=O)N[C@H]1CC[C@H](O)CC1 [Example 2-8] | > 80 |
| COc1ccc(-c2c(C)nc3sc(C(C)(C)O)nn23)cc1S(=O)(=O)C1(CO)CC1 [Example 4-4] | 50 to 80 |
| COc1ccc(-c2c(C)nc3sc(C(C)(C)O)nn23)cc1S(=O)(=O)C1CN(C(=O)OC(C)(C)C)C1 [Example 2-51] | > 80 |

| Structure (SMILES) | inhibition at 0.1 µM [%] |
| --- | --- |
| COc1ccc(-c2c(C)nc3sc(C(C)(C)OC)cn23)cc1S(=O)(=O)N[C@H]1CC[C@@H](O)CC1 [Example 1-43] | > 80 |
| Cc1nc2sc(C(C)(C)O)nn2c1-c1ccc(C#N)c(S(=O)(=O)N[C@H]2CC[C@H](O)CC2)c1 [Example 2-6] | ≤ 50 |
| COc1ccc(-c2c(C)nc3sc(C(C)(C)O)cn23)cc1S(=O)(=O)Nc1ccccc1O [Example 2-81] | > 80 |
| COc1ccc(-c2c(C)nc3sc(C(O)(C4CC4)C4CC4)nn23)cc1S(=O)(=O)CC(C)(C)C#N [Example 2-98] | > 80 |
| Cc1nc2sc(C(O)(C3CC3)C3CC3)nn2c1-c1ccc(C(F)(F)F)c(S(=O)(=O)CC(C)(C)O)c1 [Example 2-87] | > 80 |
| COc1ccc(-c2c(C)nc3sc(C(C)(C)O)nn23)cc1S(=O)(=O)C1(C(C)(C)O)CC1 [Example 2-66] | > 80 |
| COC(C)(C)c1nn2c(-c3ccc(C(F)(F)F)c(S(=O)(=O)N[C@H]4CC[C@H](O)CC4)c3)c(C)nc2s1 [Example 1-29] | > 80 |
| COc1ccc(-c2c(C)nc3sc(C4(OC)CC4)cn23)cc1S(=O)(=O)N[C@H]1CC[C@@H](O)CC1 [Example 1-47] | 50 to 80 |
| COc1ccc(-c2c(C)nc3sc(C(C)(C)O)nn23)cc1S(=O)(=O)Nc1ccc(C(C)(C)O)cc1 [Example 3-3] | ≤ 50 |
| Cc1nc2sc(C3CC3)cn2c1-c1ccc(Cl)c(S(=O)(=O)N[C@H]2CC[C@@H](O)CC2)c1 [Example 1-5] | 50 to 80 |
| COc1ccc(-c2c(C)nc3sc(C4CC4)cn23)cc1S(=O)(=O)N[C@H]1CC[C@@H](O)CC1 [Example 1-48] | 50 to 80 |
| Cc1nc2sc(C3CC3)nn2c1-c1ccc(C(F)(F)F)c(S(=O)(=O)N[C@H]2CC[C@H](O)CC2)c1 [Example 1-30] | > 80 |
| COc1ccc(-c2c(C)nc3sc(C(C)(C)O)nn23)cc1S(=O)(=O)Cc1ccc(N)cc1 [Example 26] | ≤ 50 |
| COc1ccc(-c2c(C)nc3sc(C(C)(C)O)cn23)cc1S(=O)(=O)NC(C)(C)CO [Example 2-4] | ≤ 50 |
| COc1ccc(-c2c(C)nc3sc(C(C)(C)O)nn23)cc1S(=O)(=O)[C@]1(C2CC2)C[C@H](O)C1 [Example 2-72] | ≤ 50 |
| Cc1nc2sc(C(C)(C)O)nn2c1-c1ccc(C(F)(F)F)c(S(=O)(=O)CC(C)(C)O)c1 [Example 2-27] | > 80 |
| [2H]C([2H])([2H])Oc1ccc(-c2c(C)nc3sc(C(C)(C)O)nn23)cc1S(=O)(=O)CC(C)(C)O [Example 2-58] | 50 to 80 |
| COc1ccc(-c2c(C)nc3sc(C(C)(C)O)nn23)cc1S(=O)(=O)[C@H]1CC[C@](C)(O)CC1 [Example 15-2] | 50 to 80 |
| COc1ccc(-c2c(C)nc3sc(C4(OC)CCCC4)cn23)cc1S(=O)(=O)N[C@H]1CC[C@@H](O)CC1 [Example 1-45] | > 80 |
| [2H]C([2H])([2H])Oc1ccc(-c2c(C)nc3sc(C(C)(C)O)nn23)cc1S(=O)(=O)N[C@H]1CC[C@@H](O)CC1 [Example 2-89] | 50 to 80 |
| COc1ccc(-c2c(C)nc3sc(C(C)(C)O)nn23)cc1S(=O)(=O)N[C@H]1C[C@H](O)C1 [Example 21-8] | 50 to 80 |
| COc1ccc(-c2c(C)nc3sc(C(C)(C)O)nn23)cc1S(=O)(=O)C1CC(F)(F)C1 [Example 2-69] | 50 to 80 |
| COc1ccc(-c2c(C)nc3sc(C(C)C)nn23)cc1S(=O)(=O)N[C@H]1CC[C@@H](O)CC1 [Example 1-6] | > 80 |
| COc1ccc(-c2c(C)nc3sc(C(C)(C)O)nn23)cc1S(=O)(=O)N[C@H]1C[C@H](CO)C1 [Example 21-5] | ≤ 50 |
| COc1ccc(-c2c(C)nc3sc(C(C)(C)O)nn23)cc1S(=O)(=O)CCO [Example 2-12] | ≤ 50 |
| COc1ccc(-c2c(C)nc3sc(C(C)(C)O)nn23)cc1S(=O)(=O)[C@H]1C[C@H](O)C1 [Example 2-56] | ≤ 50 |
